Measurements from patent US8710077B2, “Cycloalkylamine substituted isoquinoline and isoquinolinone derivatives” (Sanofi, priority 2006, dated 2014).

target: T1, human recombinant ROCK II (Homo sapiens, UniProt O75116); test: Determination of Rho Kinase Inhibition (Caliper peptide phosphorylation assay); assay type: biochemical; conditions: ROCK II residues 11-552, 60 min at 32° C., compound in the form (salt or free base) obtained in the examples
T1 construct: recombinant human ROCK-II residues 11-552; His6 (N); purchased Upstate Ltd., Dundee, UK
T1 sequence (O75116 11-552): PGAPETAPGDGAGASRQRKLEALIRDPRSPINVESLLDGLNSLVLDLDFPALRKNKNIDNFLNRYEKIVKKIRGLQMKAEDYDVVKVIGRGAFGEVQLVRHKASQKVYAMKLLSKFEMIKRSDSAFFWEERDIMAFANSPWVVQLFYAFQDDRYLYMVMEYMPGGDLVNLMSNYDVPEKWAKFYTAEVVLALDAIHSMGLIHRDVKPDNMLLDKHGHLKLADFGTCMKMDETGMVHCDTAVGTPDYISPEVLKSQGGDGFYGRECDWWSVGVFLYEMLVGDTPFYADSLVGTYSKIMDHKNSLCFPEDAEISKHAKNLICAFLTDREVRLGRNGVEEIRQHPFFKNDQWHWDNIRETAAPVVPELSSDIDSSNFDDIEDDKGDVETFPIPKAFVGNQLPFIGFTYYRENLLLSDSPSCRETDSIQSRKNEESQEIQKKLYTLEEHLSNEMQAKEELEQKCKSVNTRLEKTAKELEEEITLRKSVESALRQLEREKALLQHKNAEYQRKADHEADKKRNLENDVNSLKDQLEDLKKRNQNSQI
Procedure: Determination of Rho Kinase Inhibition
To measure Rho-kinase inhibition, IC50 values were determined according to the following protocol:
Active human recombinant ROCK II (N-terminal His6-tagged recombinant human ROCK-II residues 11-552) was purchased from Upstate Ltd., Dundee, UK. The peptide substrate, Fluorescein-AKRRRLSSLRA-COOH, was obtained from JPT Peptide Technologies, Berlin, Germany. Adenosine-5′-triphosphate (ATP), bovine serum albumine (BSA), dimethylsulphoxide (DMSO), 4-(2-Hydroxyethyl)piperazine-1-ethanesulfonic acid (Hepes), Brij-35 and dithiothreitol (DTT) were purchased from Sigma-Aldrich, Munich, Germany. Tris(hydroxymethyl)-aminomethane (Tris), magnesium chloride, NaOH, 1M HCl and EDTA were obtained from Merck Biosciences, Darmstadt, Germany. “Complete” protease inhibitor was from Roche Diagnostics, Mannheim, Germany.
Test compounds were diluted to the appropriate concentrations in buffer 1 (25 mM Tris-HCl, pH 7.4, 5 mM MgCl2, 2 mM DTT, 0.02% (w/v) BSA and 3% DMSO). The ROCK II enzyme was diluted to a concentration of 100 ng/ml in buffer 2 (25 mM Tris-HCl, pH 7.4, 5 mM MgCl2, 2 mM DTT and 0.02% (w/v) BSA). The peptide substrate and ATP were diluted to concentrations of 3 μM and 120 μM, respectively, in the buffer 2. Two μl of the compound solution were mixed with 2 μl of the diluted enzyme in a 384-well small volume microtiter plate (Greiner, Bio-One, Frickenhausen, Germany), and the kinase reaction was initiated by addition of 2 μl of the solution containing peptide substrate and ATP. After 60 min incubation at 32° C., the reaction was stopped by addition of 20 μl of a solution containing 100 mM Hepes-NaOH, pH 7.4, 0.015% (v/v) Brij-35, 45 mM EDTA and 0.227% chip coating reagent 1 (Caliper Lifescience Inc, Hopkinton, Mass.). Phosphorylation of the substrate peptide was then detected on a Caliper 3000 instrument essentially as described by Pommereau et al (J. Biomol. Screening 9 (5), 409-416, 2004). Separation conditions were as follows: Pressure—1.3 psi, upstream voltage—1562 V, downstream voltage—500 V, sample sip time 200 ms. Positive controls (buffer 1 instead of compound) and negative controls (buffer 1 instead of compound and buffer 2 instead of ROCK II) were run in parallel on each plate.
The following products/compounds were tested in said assay by using the respective form (salt or free base) obtained as in the examples described above and the following activities were measured.

`NCC1(c2ccc(Cl)cc2)CCC(Oc2cc3cc[nH]c(=O)c3cc2Cl)CC1` (stereo not drawn) [Compound 109, 6-[4-Aminomethyl-4-(4-chloro-phenyl)-cyclohexyloxy]-7-chloro-2H-isoquinolin-1-one] and `NCC1(c2ccc(F)cc2)CCC(Oc2cc3cc[nH]c(=O)c3cc2Cl)CC1` (stereo not drawn) [Compound 113, 6-[4-Aminomethyl-4-(4-fluoro-phenyl)-cyclohexyloxy]-7-chloro-2H-isoquinolin-1-one] cannot be ordered by IC50: at most 1000 nM for the first, at most 1000 nM for the second.

`NCC1(c2ccccc2)CCC(Oc2cc3ccncc3cc2Cl)CC1` (stereo not drawn) [Compound 120, C-[4-(7-Chloro-isoquinolin-6-yloxy)-1-phenyl-cyclohexyl]-methylamine] and `NCC1(c2ccccc2)CCC(Oc2cc3cc[nH]c(=O)c3cc2Cl)CC1` (stereo not drawn) [Compound 108, 6-(4-Aminomethyl-4-phenyl-cyclohexyloxy)-7-chloro-2H-isoquinolin-1-one] cannot be ordered by IC50: at most 1000 nM for the first, at most 1000 nM for the second.

`N[C@]1(C2CC2)CC[C@H](Oc2cc3cc[nH]c(=O)c3cc2Cl)CC1` [Compound 41, 6-(cis-4-Amino-4-cyclopropyl-cyclohexyloxy)-7-chloro-2H-isoquinolin-1-one] and `C=CCC1(N)CCC(Oc2cc3cc[nH]c(=O)c3cc2Cl)CC1` (mixture of isomers) [Compound 20, 6-(4-Allyl-4-amino-cyclohexyloxy)-7-chloro-2H-isoquinolin-1-one] cannot be ordered by IC50: at most 1000 nM for the first, at most 1000 nM for the second.

`NC1(CC(O)CO)CCC(Oc2cc3cc[nH]c(=O)c3cc2Cl)CC1` (mixture of isomers) [Compound 57, 6-[4-amino-4-(2,3-dihydroxy-propyl)-cyclohexyloxy]-7-chloro-2H-isoquinolin-1-one] and `NCC1(c2cccc(Cl)c2)CCC(Oc2cc3cc[nH]c(=O)c3cc2Cl)CC1` (stereo not drawn) [Compound 110, 6-[4-Aminomethyl-4-(3-chloro-phenyl)-cyclohexyloxy]-7-chloro-2H-isoquinolin-1-one] cannot be ordered by IC50: at most 1000 nM for the first, at most 1000 nM for the second.

`Cc1cccc(C2(CN)CCC(Oc3cc4cc[nH]c(=O)c4cc3Cl)CC2)c1` (stereo not drawn) [Compound 111, 6-[4-Aminomethyl-4-(3-methyl-phenyl)-cyclohexyloxy]-7-chloro-2H-isoquinolin-1-one] and `NCC1(c2ccc(Cl)c(Cl)c2)CCC(Oc2cc3cc[nH]c(=O)c3cc2Cl)CC1` (stereo not drawn) [Compound 116, 6-[4-Aminomethyl-4-(3,4-dichloro-phenyl)-cyclohexyloxy]-7-chloro-2H-isoquinolin-1-one] cannot be ordered by IC50: 1000 to 10000 nM for the first, at most 1000 nM for the second.

`COc1ccc(C2(CN)CCC(Oc3cc4cc[nH]c(=O)c4cc3Cl)CC2)cc1OC` (stereo not drawn) [Compound 112, 6-[4-Aminomethyl-4-(3,4-dimethoxy-phenyl)-cyclohexyloxy]-7-chloro-2H-isoquinolin-1-one] and `COc1ccc(C2(CN)CCC(Oc3cc4cc[nH]c(=O)c4cc3Cl)CC2)cc1` (stereo not drawn) [Compound 114, 6-[4-Aminomethyl-4-(4-methoxy-phenyl)-cyclohexyloxy]-7-chloro-2H-isoquinolin-1-one] cannot be ordered by IC50: at most 1000 nM for the first, at most 1000 nM for the second.
